From US9801850B2, “Antibacterial agent” (OSAKA UNIVERSITY, priority 2009, dated 2017)

Assays:
[1] = system: MRSA clinical isolate No. 9; experiment: MIC, broth microdilution (Example 2, Table 6); type: cell-based, Staphylococcus aureus
[2] = system: MRSA clinical isolate No. 6; experiment: MIC, broth microdilution (Example 2, Table 6); type: cell-based, Staphylococcus aureus
[3] = system: MSSA clinical isolate No. 4; experiment: MIC, broth microdilution (Example 2, Table 6); type: cell-based, Staphylococcus aureus
[4] = system: Streptococcus pneumoniae ATCC49619; experiment: Antibacterial spectrum MIC (Table 7); type: cell-based; details: Strepto Haemo supplement
Protocol: (§1) Methicillin-susceptible Staphylococcus aureus (MSSA) NCTC8325 and methicillin-resistant Staphylococcus aureus (MRSA) ATCC43300 were used as bacteria. The bacteria of each type were cultured using Mueller-Hinton Broth (MH-broth, Difco) as a medium. Then, the minimum inhibitory concentration (MIC) of each of the EGCG derivatives was measured by a broth microdilution method in accordance with the Clinical and Laboratory Standards Institute (CLSI) guidelines (hereinafter the same).
(§2) First, each of the EGCG derivatives was dissolved in 100% dimethyl sulfoxide (DMSO, Wako Pure Chemical Industries, Ltd.) so that the concentration thereof became 5120 μg/ml. The resultant solution was diluted with DMSO or sterile distilled water so as to prepare two-fold dilution series of antibacterial agent solutions. […] Each of these antibacterial agent solutions was dispensed to wells of a 96-well plate. The concentration of the EGCG derivative in the antibacterial agent solution dispensed to the wells was set to be 10 times as high as the final concentration. On the other hand, the bacteria were cultured in the MH-broth at 37° C. overnight, and the thus-obtained pre-culture solution was diluted with a new MH-broth so that the concentration thereof in the MH-broth became 10^−4 (10^4-fold dilution), thus preparing a bacterial culture solution of about 1×10^5 CFU/ml (CFU: Colony Forming Unit, the number of viable cells). The bacterial culture solution was further added to each well, and the mixture was cultured at 37° C. for 18 hours. The ratio (volume ratio) between the antibacterial agent solution and the bacterial culture solution added to each well was set to 1:9 (the antibacterial agent solution:the bacterial culture solution), and the volume of the mixture of them per well was set to 100 μl in total. The final concentration of the EGCG derivative in the mixture was set to 8 μg/ml to 512 μg/ml, and the number of viable cells in the mixture was set to about 1×10^5 CFU/ml. Then, after the completion of the culture, the MIC was determined. Also, the turbidity (OD600 nm) was measured using a plate reader so as to identify minor differences.
(§3) Regarding the respective type strains shown in Tables 7 and 8 below, the MIC measurement was performed using the antibacterial agent solutions of Example 2 in the same manner as described in Section (2) of Example 1, except for the following. The antibacterial agent solutions were prepared by dissolving the EGCG derivatives of Example 2 in 100% DMSO and then diluting the resultant mixtures with sterile distilled water. The respective strains were derived from ATCC or NCTC. As Moraxella catarrhalis and Aspergillus fumigatus, clinical isolates thereof without an acquired resistance mechanism were used. For nutrient-rich bacteria, namely, Streptococcus pneumoniae ATCC49619, Streptococcus pyogenes ATCC19615, Streptococcus agalactiae ATCC13813, Moraxella catarrhalis, and Haemophilis influenzae ATCC49766, Strepto Haemo supplement (Eiken Chemical Co., Ltd.) was added to media for culturing them. The MIC measurement with respect to fungi was carried out by a broth microdilution method using a RPMI1640/MOPS (pH 7.0) medium in accordance with CLSI guidelines. About 2×10^3 cells/ml of fungi were inoculated to the medium. After the culture at 35° C. for 24 to 48 hours, the MIC was determined. Also, regarding the antibacterial agent solution of Comparative Example 2, the MIC was measured in the same manner.

[5] = system: Moraxella catarrhalis; experiment: Antibacterial spectrum MIC (Table 7); type: cell-based; details: Moraxella catarrhalis clinical isolate, Strepto Haemo supplement
Protocol: as §1, §2, §3

[6] = system: Neisseria gonorrhoeae ATCC49226; experiment: Antibacterial spectrum MIC (Table 7); type: cell-based
Protocol: as §1, §2, §3

[7] = system: Bacillus cereus ATCC14579; experiment: Antibacterial spectrum MIC (Table 7); type: cell-based
Protocol: as §1, §2, §3

[8] = system: Serratia marcescens ATCC13880; experiment: Antibacterial spectrum MIC (Table 7); type: cell-based
Protocol: as §1, §2, §3

[9] = system: Streptococcus pyogenes ATCC19615; experiment: Antibacterial spectrum MIC (Table 7); type: cell-based; details: Strepto Haemo supplement
Protocol: as §1, §2, §3

[10] = system: Staphylococcus aureus ATCC43300 (MRSA); experiment: Antibacterial spectrum MIC (Table 7); type: cell-based
Protocol: as §1, §2, §3

[11] = system: Escherichia coli ATCC25922; experiment: Antibacterial spectrum MIC (Table 7); type: cell-based
Protocol: as §1, §2, §3

[12] = system: Bacillus subtilus ATCC6051; experiment: Antibacterial spectrum MIC (Table 7); type: cell-based
Protocol: as §1, §2, §3

[13] = system: Micrococcus lutus ATCC9341; experiment: Antibacterial spectrum MIC (Table 7); type: cell-based
Protocol: as §1, §2, §3

[14] = system: Enterococcus faecalis ATCC29212; experiment: Antibacterial spectrum MIC (Table 7); type: cell-based
Protocol: as §1, §2, §3

[15] = system: Yersinia enterocolitica ATCC9610; experiment: Antibacterial spectrum MIC (Table 7); type: cell-based
Protocol: as §1, §2, §3

[16] = system: Streptococcus agalactiae ATCC13813; experiment: Antibacterial spectrum MIC (Table 7); type: cell-based; details: Strepto Haemo supplement
Protocol: as §1, §2, §3

[17] = system: Enterobacter aerogenes ATCC13048; experiment: Antibacterial spectrum MIC (Table 7); type: cell-based
Protocol: as §1, §2, §3

[18] = system: Haemophilis influenzae ATCC49766; experiment: Antibacterial spectrum MIC (Table 7); type: cell-based; details: Strepto Haemo supplement
Protocol: as §1, §2, §3

[19] = system: Neisseria meningitidis; experiment: Antibacterial spectrum MIC (Table 7); type: cell-based
Protocol: as §1, §2, §3

[20] = system: Klebsiella oxytoca ATCC8724; experiment: Antibacterial spectrum MIC (Table 7); type: cell-based
Protocol: as §1, §2, §3

[21] = system: Staphylococcus aureus NCTC8325; experiment: Antibacterial spectrum MIC (Table 7); type: cell-based
Protocol: as §1, §2, §3

[22] = system: Staphylococcus epidermis ATCC14990; experiment: Antibacterial spectrum MIC (Table 7); type: cell-based; details: Staphylococcus epidermis ATCC14990
Protocol: as §1, §2, §3

[23] = system: Stenotrophomonas maltophilia ATCC13637; experiment: Antibacterial spectrum MIC (Table 7); type: cell-based
Protocol: as §1, §2, §3

[24] = system: MSSA ATCC29213; experiment: MIC, broth microdilution (Example 2, Table 6); type: cell-based, Staphylococcus aureus
[25] = system: MRSA clinical isolate No. 10; experiment: MIC, broth microdilution (Example 2, Table 6); type: cell-based, Staphylococcus aureus
[26] = system: MSSA clinical isolate No. 2; experiment: MIC, broth microdilution (Example 2, Table 6); type: cell-based, Staphylococcus aureus
[27] = system: MSSA ATCC25923; experiment: MIC, broth microdilution (Example 2, Table 6); type: cell-based, Staphylococcus aureus

## EGCG-oleate [EGCG-C18E]
[1]
  MIC: 64 µg/mL
[2]
  MIC: 32 µg/mL
[3]
  MIC: 32 µg/mL
[4]
  MIC: 16 µg/mL
[5]
  MIC: 32 µg/mL
[6]
  MIC: 16 µg/mL
[7]
  MIC: 32 µg/mL
[8]
  MIC: 64 µg/mL
[9]
  MIC: 64 µg/mL
[10]
  MIC: 64 µg/mL
[11]
  MIC: 64 µg/mL
[12]
  MIC: 32 µg/mL
[13]
  MIC: 64 µg/mL
[14]
  MIC: >64 µg/mL
[15]
  MIC: 32 µg/mL
[16]
  MIC: >64 µg/mL
[17]
  MIC: 32 µg/mL
[18]
  MIC: 16 µg/mL
[19]
  MIC: 16 µg/mL
[20]
  MIC: 64 µg/mL
[21]
  MIC: 32 µg/mL
[22]
  MIC: 64 µg/mL
[23]
  MIC: 32 µg/mL
[24]
  MIC: 32 µg/mL
[25]
  MIC: 16 µg/mL
[26]
  MIC: 32 µg/mL
[27]
  MIC: 32 µg/mL

## EGCG-palmitoleate [EGCG-C16E]
[1]
  MIC: 64 µg/mL
[2]
  MIC: 16 µg/mL
[3]
  MIC: 16 µg/mL
[4]
  MIC: 16 µg/mL
[5]
  MIC: 64 µg/mL
[6]
  MIC: 16 µg/mL
[7]
  MIC: 16 µg/mL
[8]
  MIC: 64 µg/mL
[9]
  MIC: 64 µg/mL
[10]
  MIC: 64 µg/mL
[11]
  MIC: 64 µg/mL
[12]
  MIC: 16 µg/mL
[13]
  MIC: 64 µg/mL
[14]
  MIC: 64 µg/mL
[15]
  MIC: 32 µg/mL
[16]
  MIC: >64 µg/mL
[17]
  MIC: 32 µg/mL
[18]
  MIC: 16 µg/mL
[19]
  MIC: 16 µg/mL
[20]
  MIC: 64 µg/mL
[21]
  MIC: 16 µg/mL
[22]
  MIC: 64 µg/mL
[23]
  MIC: 32 µg/mL
[24]
  MIC: 16 µg/mL
[25]
  MIC: 16 µg/mL
[26]
  MIC: 16 µg/mL
[27]
  MIC: 32 µg/mL
